Measured values as given in ChEMBL document CHEMBL3352542, “Synthesis, biological evaluation and molecular modeling study of 2-(1,3,4-thiadiazolyl-thio and 4-methyl-thiazolyl-thio)-quinazolin-4-ones as a new class of DHFR inhibitors” (Bioorg Med Chem Lett, 2014).
Activity calls are given as the source filed them. No cut-off for these calls is given here.

What was measured:
[1] = test system: Staphylococcus aureus; assay: Antimicrobial activity against Staphylococcus aureus assessed as inhibition zone at 200 ug/disk after 24 hrs by disc-diffusion method; assay type: functional; conditions: read-out: IZ
[2] = test system: Escherichia coli; assay: Antimicrobial activity against Escherichia coli assessed as inhibition zone at 200 ug/disk after 24 hrs by disc-diffusion method; assay type: functional; conditions: read-out: IZ
[3] = molecular target: T1, Dihydrofolate reductase (Bos taurus, UniProt P00376); assay: Inhibition of bovine liver DHFR
T1 sequence (P00376 whole entry): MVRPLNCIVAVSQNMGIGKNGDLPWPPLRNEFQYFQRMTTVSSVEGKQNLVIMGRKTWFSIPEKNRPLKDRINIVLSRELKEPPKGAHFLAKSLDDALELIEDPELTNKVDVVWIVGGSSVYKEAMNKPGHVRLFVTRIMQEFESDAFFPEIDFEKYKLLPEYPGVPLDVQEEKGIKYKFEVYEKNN

[4] = (§1) Growth inhibition of human PC3 cells at 10 uM after 48 hrs; assay type: functional; conditions: PC-3, 48 h, read-out: GI
[5] = (§2) Growth inhibition of human HOP92 cells at 10 uM after 48 hrs; assay type: functional; conditions: HOP-92, 48 h, read-out: GI
[6] = test system: Pseudomonas aeruginosa; assay: Antimicrobial activity against Pseudomonas aeruginosa assessed as inhibition zone at 200 ug/disk after 24 hrs by disc-diffusion method; assay type: functional; conditions: read-out: IZ
[7] = test system: SR; assay: Growth inhibition of human SR cells at 10 uM after 48 hrs; assay type: functional
[8] = test system: Bacillus subtilis; assay: Antimicrobial activity against Bacillus subtilis assessed as inhibition zone at 200 ug/disk after 24 hrs by disc-diffusion method; assay type: functional; conditions: read-out: IZ
[9] = test system: A498; assay: Growth inhibition of human A498 cells at 10 uM after 48 hrs; assay type: functional
[10] = test system: CAKI-1; assay: Growth inhibition of human CAKI-1 cells at 10 uM after 48 hrs; assay type: functional
[11] = test system: SNB-19; assay: Growth inhibition of human SNB19 cells at 10 uM after 48 hrs; assay type: functional
[12] = test system: Candida albicans; assay: Antimicrobial activity against Candida albicans assessed as inhibition zone at 200 ug/disk after 24 hrs by disc-diffusion method; assay type: functional; conditions: read-out: IZ
[13] = test system: T47D; assay: Growth inhibition of human T47D cells at 10 uM after 48 hrs; assay type: functional
[14] = test system: HL-60(TB); assay: Growth inhibition of human HL-60(TB) cells at 10 uM after 48 hrs; assay type: functional
[15] = test system: U-251; assay: Growth inhibition of human U251 cells at 10 uM after 48 hrs; assay type: functional
[16] = test system: K562; assay: Growth inhibition of human K562 cells at 10 uM after 48 hrs; assay type: functional
[17] = (§3) Growth inhibition of human UO31 cells at 10 uM after 48 hrs; assay type: functional; conditions: UO-31, 48 h, read-out: GI
[18] = (§4) Growth inhibition of human SF295 cells at 10 uM after 48 hrs; assay type: functional; conditions: SF-295, 48 h, read-out: GI
[19] = (§5) Growth inhibition of human Hs 578T cells at 10 uM after 48 hrs; assay type: functional; conditions: read-out: GI
[20] = test system: Malme-3M; assay: Growth inhibition of human MALME-3M cells at 10 uM after 48 hrs; assay type: functional
[21] = test system: SF-539; assay: Growth inhibition of human SF539 cells at 10 uM after 48 hrs; assay type: functional
[22] = test system: UACC-62; assay: Growth inhibition of human UACC62 cells at 10 uM after 48 hrs; assay type: functional
[23] = test system: MCF7; assay: Growth inhibition of human MCF7 cells at 10 uM after 48 hrs; assay type: functional
[24] = test system: Staphylococcus aureus; assay: Antimicrobial activity against Staphylococcus aureus assessed as inhibition of visible growth after 24 hrs by disc-diffusion method; assay type: functional, organism-based
[25] = test system: MOLT-4; assay: Growth inhibition of human MOLT4 cells at 10 uM after 48 hrs; assay type: functional
[26] = test system: A549; assay: Growth inhibition of human A549 cells at 10 uM after 48 hrs; assay type: functional
[27] = test system: SK-MEL-28; assay: Growth inhibition of human SK-MEL-28 cells at 10 uM after 48 hrs; assay type: functional, cell-based
[28] = test system: SK-MEL-5; assay: Growth inhibition of human SK-MEL-5 cells at 10 uM after 48 hrs; assay type: functional
[29] = test system: OVCAR-4; assay: Growth inhibition of human OVCAR4 cells at 10 uM after 48 hrs; assay type: functional
[30] = test system: HCT-15; assay: Growth inhibition of human HCT15 cells at 10 uM after 48 hrs; assay type: functional
[31] = test system: CCRF-CEM; assay: Growth inhibition of human CCRF-CEM cells at 10 uM after 48 hrs; assay type: functional
[32] = test system: Escherichia coli; assay: Antimicrobial activity against Escherichia coli assessed as inhibition of visible growth after 24 hrs by disc-diffusion method; assay type: functional, organism-based
[33] = test system: NCI-H522; assay: Growth inhibition of human NCI-H522 cells at 10 uM after 48 hrs; assay type: functional
[34] = test system: PC-3; assay: as §1; assay type: functional
[35] = test system: MDA-MB-468; assay: Growth inhibition of human MDA-MB-468 cells at 10 uM after 48 hrs; assay type: functional
[36] = test system: HOP-92; assay: as §2; assay type: functional
[37] = test system: HCT-116; assay: Growth inhibition of human HCT116 cells at 10 uM after 48 hrs; assay type: functional
[38] = test system: MDA-MB-231; assay: Growth inhibition of human MDA-MB-231 cells at 10 uM after 48 hrs; assay type: functional
[39] = test system: Bacillus subtilis; assay: Antimicrobial activity against Bacillus subtilis assessed as inhibition of visible growth after 24 hrs by disc-diffusion method; assay type: functional, organism-based
[40] = test system: KM12; assay: Growth inhibition of human KM12 cells at 10 uM after 48 hrs; assay type: functional
[41] = test system: UACC-257; assay: Growth inhibition of human UACC257 cells at 10 uM after 48 hrs; assay type: functional
[42] = test system: RXF 393; assay: Growth inhibition of human RXF393 cells at 10 uM after 48 hrs; assay type: functional
[43] = test system: 786-0; assay: Growth inhibition of human 786-0 cells at 10 uM after 48 hrs; assay type: functional
[44] = test system: MDA-MB-435; assay: Growth inhibition of human MDA-MB-435 cells at 10 uM after 48 hrs; assay type: functional
[45] = test system: RPMI-8226; assay: Growth inhibition of human RPMI8226 cells at 10 uM after 48 hrs; assay type: functional
[46] = test system: HT-29; assay: Growth inhibition of human HT-29 cells at 10 uM after 48 hrs; assay type: functional
[47] = test system: UO-31; assay: as §3; assay type: functional
[48] = test system: SF-295; assay: as §4; assay type: functional
[49] = test system: HOP-62; assay: Growth inhibition of human HOP62 cells at 10 uM after 48 hrs; assay type: functional
[50] = test system: Hs-578T; assay: as §5; assay type: functional
[51] = test system: NCI-H226; assay: Growth inhibition of human NCI-H226 cells at 10 uM after 48 hrs; assay type: functional

SMILES: COc1cc2nc(Sc3nnc(N)s3)n(-c3ccc(Cl)cc3)c(=O)c2cc1OC
- zone of inhibition at 200 µg/disc [1]: 8 mm
- zone of inhibition at 200 µg/disc [2]: 8 mm
- IC50 [3]: 6 µM
- inhibition of growth at 10 µM [4]: 11.2%
- inhibition of growth at 10 µM [5]: 40.9%
- zone of inhibition at 200 µg/disc [6]: 8 mm
- inhibition of growth at 10 µM ([7]; read-out: GI): 14.4%
- zone of inhibition at 200 µg/disc [8]: 8 mm
- inhibition of growth at 10 µM ([9]; A498, 48 h, read-out: GI): 18.8%
- inhibition of growth at 10 µM ([10]; CAKI-1, 48 h, read-out: GI): 12.6%
- inhibition of growth at 10 µM ([11]; SNB-19, 48 h, read-out: GI): 11.9%
- zone of inhibition at 200 µg/disc [12]: 8 mm
- inhibition of growth at 10 µM ([13]; read-out: GI): 13.7%
- inhibition of growth at 10 µM ([14]; HL-60, 48 h, read-out: GI): 31.5%
- inhibition of growth at 10 µM ([15]; U-251, 48 h, read-out: GI): 11.5%
- inhibition of growth at 10 µM ([16]; K562, 48 h, read-out: GI): 15.3%
- inhibition of growth at 10 µM [17]: 23.6%
- inhibition of growth at 10 µM [18]: 12.1%
- inhibition of growth at 10 µM [19]: 10.9%
- inhibition of growth at 10 µM ([20]; read-out: GI): 12.4%

SMILES: Cc1ccc(-n2c(Sc3nnc(N)s3)nc3ccc(Cl)cc3c2=O)cc1
- zone of inhibition at 200 µg/disc [1]: 18 mm
- growth inhibition (GI) [21]: inactive
- zone of inhibition at 200 µg/disc [2]: 18 mm
- growth inhibition (GI) [22]: inactive
- growth inhibition (GI) [23]: inactive
- Activity [24]: Active
- growth inhibition (GI) [25]: inactive
- growth inhibition (GI) [26]: inactive
- growth inhibition (GI) [27]: inactive
- growth inhibition (GI) [28]: inactive
- growth inhibition (GI) [29]: inactive
- growth inhibition (GI) [30]: inactive
- growth inhibition (GI) [31]: inactive
- IC50 [3]: 8 µM
- Activity [32]: Active
- growth inhibition (GI) [33]: inactive
- growth inhibition (GI) [34]: inactive
- growth inhibition (GI) [35]: inactive
- growth inhibition (GI) [36]: inactive
- growth inhibition (GI) [37]: inactive
- zone of inhibition at 200 µg/disc [6]: 14 mm
- growth inhibition (GI) [7]: inactive
- zone of inhibition at 200 µg/disc [8]: 20 mm
- growth inhibition (GI) [38]: inactive
- growth inhibition (GI) [9]: inactive
- Activity [39]: Active
- growth inhibition (GI) [10]: inactive
- growth inhibition (GI) [40]: inactive
- growth inhibition (GI) [11]: inactive
- zone of inhibition at 200 µg/disc [12]: 10 mm
- growth inhibition (GI) [13]: inactive
- growth inhibition (GI) [41]: inactive
- growth inhibition (GI) [42]: inactive
- growth inhibition (GI) [43]: inactive
- growth inhibition (GI) [44]: inactive
- growth inhibition (GI) [14]: inactive
- growth inhibition (GI) [45]: inactive
- growth inhibition (GI) [46]: inactive
- growth inhibition (GI) [15]: inactive
- growth inhibition (GI) [16]: inactive
- growth inhibition (GI) [47]: inactive
- growth inhibition (GI) [48]: inactive
- growth inhibition (GI) [49]: inactive
- growth inhibition (GI) [50]: inactive
- growth inhibition (GI) [51]: inactive
- growth inhibition (GI) [20]: inactive

SMILES: Cc1ccc2nc(Sc3nnc(N)s3)n(-c3ccc(Oc4ccccc4)cc3)c(=O)c2c1
- zone of inhibition at 200 µg/disc [1]: 8 mm
- growth inhibition (GI) [21]: inactive
- zone of inhibition at 200 µg/disc [2]: 8 mm
- growth inhibition (GI) [22]: inactive
- growth inhibition (GI) [23]: inactive
- growth inhibition (GI) [25]: inactive
- growth inhibition (GI) [26]: inactive
- growth inhibition (GI) [27]: inactive
- growth inhibition (GI) [28]: inactive
- growth inhibition (GI) [29]: inactive
- growth inhibition (GI) [30]: inactive
- growth inhibition (GI) [31]: inactive
- IC50 [3]: 0.1 µM
- growth inhibition (GI) [33]: inactive
- growth inhibition (GI) [34]: inactive
- growth inhibition (GI) [35]: inactive
- growth inhibition (GI) [36]: inactive
- growth inhibition (GI) [37]: inactive
- zone of inhibition at 200 µg/disc [6]: 8 mm
- growth inhibition (GI) [7]: inactive
- zone of inhibition at 200 µg/disc [8]: 8 mm
- growth inhibition (GI) [38]: inactive
- growth inhibition (GI) [9]: inactive
- growth inhibition (GI) [10]: inactive
- growth inhibition (GI) [40]: inactive
- growth inhibition (GI) [11]: inactive
- zone of inhibition at 200 µg/disc [12]: 8 mm
- growth inhibition (GI) [13]: inactive
- growth inhibition (GI) [41]: inactive
- growth inhibition (GI) [42]: inactive
- growth inhibition (GI) [43]: inactive
- growth inhibition (GI) [44]: inactive
- growth inhibition (GI) [14]: inactive
- growth inhibition (GI) [45]: inactive
- growth inhibition (GI) [46]: inactive
- growth inhibition (GI) [15]: inactive
- growth inhibition (GI) [16]: inactive
- growth inhibition (GI) [47]: inactive
- growth inhibition (GI) [48]: inactive
- growth inhibition (GI) [49]: inactive
- growth inhibition (GI) [50]: inactive
- growth inhibition (GI) [51]: inactive
- growth inhibition (GI) [20]: inactive
